Consider eleven compounds from ChEMBL document CHEMBL5465560, “Selectivity Literature for EUbOPEN Chemogenomic Library” (2024).

Some results are limits rather than exact numbers.

The target of assay [1] is Serine/threonine-protein kinase 38 (Homo sapiens) (UniProt Q15208). Kind of assay: Selectivity interaction (KinomeScan (DiscoverX)) EUB0000607a STK38. The note with it: at 10 µM.
The target of assay [2] is T1, Protein arginine N-methyltransferase 9 (Homo sapiens, UniProt Q6P2P2).
T1 sequence (Q6P2P2 whole entry): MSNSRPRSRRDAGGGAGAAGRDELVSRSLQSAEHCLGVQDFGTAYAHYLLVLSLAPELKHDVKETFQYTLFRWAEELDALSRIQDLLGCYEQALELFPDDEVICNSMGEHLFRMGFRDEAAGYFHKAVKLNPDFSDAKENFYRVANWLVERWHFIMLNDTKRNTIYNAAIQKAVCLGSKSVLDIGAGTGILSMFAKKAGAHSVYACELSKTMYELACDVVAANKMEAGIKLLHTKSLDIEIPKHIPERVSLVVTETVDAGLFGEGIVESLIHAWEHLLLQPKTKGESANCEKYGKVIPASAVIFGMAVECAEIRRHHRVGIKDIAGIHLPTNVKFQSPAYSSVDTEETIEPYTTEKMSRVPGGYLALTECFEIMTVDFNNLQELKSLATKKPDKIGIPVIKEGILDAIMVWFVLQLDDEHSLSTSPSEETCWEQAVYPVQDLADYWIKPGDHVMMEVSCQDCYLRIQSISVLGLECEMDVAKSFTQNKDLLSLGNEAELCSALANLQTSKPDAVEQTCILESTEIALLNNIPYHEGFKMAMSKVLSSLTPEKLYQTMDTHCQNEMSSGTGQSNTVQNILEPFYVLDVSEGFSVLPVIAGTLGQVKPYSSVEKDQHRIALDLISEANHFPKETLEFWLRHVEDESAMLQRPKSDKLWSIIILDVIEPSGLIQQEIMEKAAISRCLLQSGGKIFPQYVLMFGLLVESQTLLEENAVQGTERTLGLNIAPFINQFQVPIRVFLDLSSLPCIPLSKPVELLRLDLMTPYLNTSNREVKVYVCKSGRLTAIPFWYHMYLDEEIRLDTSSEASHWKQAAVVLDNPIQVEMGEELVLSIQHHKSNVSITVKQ
Description: Selectivity interaction (Scintillation proximity assays) EUB0000230b PRMT9.

In assay [3] the target is Phosphatidylinositol 4-kinase beta (Homo sapiens, UniProt Q9UBF8). Description: Selectivity interaction (KinomeScan (DiscoverX)) EUB0000229b PI4KB. To be noted: at 10 µM.
Phosphatidylinositol 4-kinase beta, sequence (Q9UBF8 2-816 limits assumed): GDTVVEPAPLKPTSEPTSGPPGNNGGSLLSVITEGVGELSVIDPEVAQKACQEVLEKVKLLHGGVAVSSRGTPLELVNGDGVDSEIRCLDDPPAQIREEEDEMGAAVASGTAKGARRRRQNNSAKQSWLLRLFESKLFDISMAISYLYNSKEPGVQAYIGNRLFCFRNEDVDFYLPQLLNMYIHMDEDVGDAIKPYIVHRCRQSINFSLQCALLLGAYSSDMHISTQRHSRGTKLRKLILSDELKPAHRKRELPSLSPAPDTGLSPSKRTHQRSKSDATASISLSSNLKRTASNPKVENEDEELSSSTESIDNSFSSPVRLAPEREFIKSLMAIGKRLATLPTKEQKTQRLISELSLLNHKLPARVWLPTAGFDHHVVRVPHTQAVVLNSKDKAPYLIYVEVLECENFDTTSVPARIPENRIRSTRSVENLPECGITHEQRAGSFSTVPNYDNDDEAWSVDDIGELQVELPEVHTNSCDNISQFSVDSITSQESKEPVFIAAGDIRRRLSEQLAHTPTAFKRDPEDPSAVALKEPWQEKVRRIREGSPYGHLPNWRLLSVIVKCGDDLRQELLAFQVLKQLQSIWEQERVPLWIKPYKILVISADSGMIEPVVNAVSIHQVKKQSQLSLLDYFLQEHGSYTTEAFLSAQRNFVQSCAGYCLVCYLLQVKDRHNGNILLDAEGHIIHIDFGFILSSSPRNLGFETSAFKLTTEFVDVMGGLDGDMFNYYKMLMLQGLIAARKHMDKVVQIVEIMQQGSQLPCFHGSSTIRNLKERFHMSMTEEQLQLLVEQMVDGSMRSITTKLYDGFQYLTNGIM
For assay [4], the target named is T2, Bone morphogenetic protein receptor type-2 (Homo sapiens) (UniProt Q13873).
T2 sequence (whole entry): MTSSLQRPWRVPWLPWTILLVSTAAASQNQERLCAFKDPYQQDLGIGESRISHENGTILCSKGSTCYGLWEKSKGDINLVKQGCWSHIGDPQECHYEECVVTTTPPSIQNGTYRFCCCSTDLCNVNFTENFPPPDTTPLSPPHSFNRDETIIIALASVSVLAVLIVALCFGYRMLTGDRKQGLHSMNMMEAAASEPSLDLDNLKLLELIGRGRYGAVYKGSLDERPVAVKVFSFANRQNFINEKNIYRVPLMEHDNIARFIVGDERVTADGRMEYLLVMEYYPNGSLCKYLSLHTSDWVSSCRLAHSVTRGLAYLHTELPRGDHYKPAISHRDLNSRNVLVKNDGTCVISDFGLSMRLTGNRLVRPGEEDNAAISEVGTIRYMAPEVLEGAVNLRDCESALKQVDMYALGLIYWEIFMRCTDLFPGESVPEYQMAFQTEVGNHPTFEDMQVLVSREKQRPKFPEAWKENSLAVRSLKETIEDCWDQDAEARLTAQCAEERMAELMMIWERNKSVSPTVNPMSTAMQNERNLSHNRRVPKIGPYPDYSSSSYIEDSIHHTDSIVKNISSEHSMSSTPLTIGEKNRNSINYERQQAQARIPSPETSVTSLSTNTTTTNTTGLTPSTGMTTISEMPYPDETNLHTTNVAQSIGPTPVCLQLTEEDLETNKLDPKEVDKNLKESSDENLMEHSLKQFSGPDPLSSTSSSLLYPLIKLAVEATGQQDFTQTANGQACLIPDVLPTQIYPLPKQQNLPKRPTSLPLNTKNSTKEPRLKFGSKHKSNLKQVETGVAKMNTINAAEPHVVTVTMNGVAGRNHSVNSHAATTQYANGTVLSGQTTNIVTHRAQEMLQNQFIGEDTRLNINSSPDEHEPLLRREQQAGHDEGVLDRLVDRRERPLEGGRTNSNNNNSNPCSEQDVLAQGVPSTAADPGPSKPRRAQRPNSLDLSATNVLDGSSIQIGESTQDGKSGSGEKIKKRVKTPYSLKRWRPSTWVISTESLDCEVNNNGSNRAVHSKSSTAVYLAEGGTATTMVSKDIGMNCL
Description: Selectivity interaction (KinomeScan (DiscoverX)) EUB0001079a BMPR2. To be noted: at 1 µM.

The target of assay [5] is Ribosomal protein S6 kinase alpha-1 (Homo sapiens, UniProt Q15418). Description: Selectivity interaction (ActivX KiNativ screen (ex vivo kinase selectivity in human PBMCs)) EUB0001619a RPS6KA1. It is filed as cell-based. To be noted: PBMC, at 1 µM.
Assay [6] has as its target MAP kinase-interacting serine/threonine-protein kinase 2 (Homo sapiens, UniProt Q9HBH9). Kind of assay: Selectivity interaction (Kinase panel (literature)) EUB0001199aCl MKNK2. The note with it: at 1 µM.
The target of the next assay is Mu-type opioid receptor (Homo sapiens, UniProt P35372). Description: Selectivity interaction (Opioid Mu GTPgS agonist assay ) EUB0000877a OPRM1.
Mu-type opioid receptor, sequence (P35372 whole entry): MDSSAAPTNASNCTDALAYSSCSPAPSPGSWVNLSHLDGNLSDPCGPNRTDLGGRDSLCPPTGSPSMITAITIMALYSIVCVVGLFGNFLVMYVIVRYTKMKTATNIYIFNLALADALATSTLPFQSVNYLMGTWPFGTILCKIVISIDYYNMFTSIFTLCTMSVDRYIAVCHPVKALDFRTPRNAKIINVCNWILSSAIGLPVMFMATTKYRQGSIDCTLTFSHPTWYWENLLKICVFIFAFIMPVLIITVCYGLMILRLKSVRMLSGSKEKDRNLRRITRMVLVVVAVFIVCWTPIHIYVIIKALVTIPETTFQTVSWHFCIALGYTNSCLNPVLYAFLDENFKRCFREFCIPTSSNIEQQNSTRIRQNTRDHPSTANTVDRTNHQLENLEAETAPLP
The target of assay [7] is Tyrosine-protein kinase Lyn (Homo sapiens, UniProt P07948). Kind of assay: Selectivity interaction (Kinase screening (Upstate/Millipore)) EUB0000604a LYN.
Tyrosine-protein kinase Lyn, sequence (P07948 2-512 limits assumed): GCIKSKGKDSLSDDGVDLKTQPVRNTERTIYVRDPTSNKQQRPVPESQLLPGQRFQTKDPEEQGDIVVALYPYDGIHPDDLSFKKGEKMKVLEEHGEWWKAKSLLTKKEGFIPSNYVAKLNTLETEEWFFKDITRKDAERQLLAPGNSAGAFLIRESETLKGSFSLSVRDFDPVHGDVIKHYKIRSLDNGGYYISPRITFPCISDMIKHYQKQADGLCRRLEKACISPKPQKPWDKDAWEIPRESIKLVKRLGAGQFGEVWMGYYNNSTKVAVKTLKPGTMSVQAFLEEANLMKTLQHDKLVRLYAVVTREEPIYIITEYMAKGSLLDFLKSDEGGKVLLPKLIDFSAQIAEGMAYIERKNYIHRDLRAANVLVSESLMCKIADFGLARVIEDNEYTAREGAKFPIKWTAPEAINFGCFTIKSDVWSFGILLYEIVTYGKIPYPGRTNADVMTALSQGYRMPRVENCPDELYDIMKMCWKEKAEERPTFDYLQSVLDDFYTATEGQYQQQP
Assay [8] addresses Protein-tyrosine kinase 2-beta (Homo sapiens) (UniProt Q14289). Description: Selectivity interaction (KinomeScan (DiscoverX)) EUB0000695a PTK2B. To be noted: at 100 nM.
Assay [9] concerns the target Dual specificity tyrosine-phosphorylation-regulated kinase 1B (Homo sapiens, UniProt Q9Y463). Description: Selectivity interaction (KinomeScan (DiscoverX)) EUB0000618a DYRK1B. To be noted: at 10 µM.
Assay [10] addresses Mitogen-activated protein kinase kinase kinase 11 (Homo sapiens) (UniProt Q16584). Description: Selectivity interaction (KinomeScan (DiscoverX)) EUB0000618a MAP3K11. The note with it: at 10 µM.
In assay [11] the target is Dual specificity mitogen-activated protein kinase kinase 1 (Homo sapiens, UniProt Q02750). Kind of assay: Selectivity interaction (Upstate Kinase Profiler service (Millipore)) EUB0000056c MAP2K1. The note with it: at 1 µM.
Dual specificity mitogen-activated protein kinase kinase 1, sequence (Q02750 whole entry): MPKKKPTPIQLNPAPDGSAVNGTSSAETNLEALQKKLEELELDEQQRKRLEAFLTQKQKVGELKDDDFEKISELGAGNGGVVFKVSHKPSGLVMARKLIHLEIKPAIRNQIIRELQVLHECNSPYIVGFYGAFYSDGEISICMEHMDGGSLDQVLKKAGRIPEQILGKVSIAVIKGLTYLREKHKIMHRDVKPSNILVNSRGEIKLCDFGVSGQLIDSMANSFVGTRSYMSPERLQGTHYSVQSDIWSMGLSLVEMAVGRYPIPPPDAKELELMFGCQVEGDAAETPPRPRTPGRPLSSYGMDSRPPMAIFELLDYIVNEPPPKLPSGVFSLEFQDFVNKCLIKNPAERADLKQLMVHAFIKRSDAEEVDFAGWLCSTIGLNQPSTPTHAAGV

Dual specificity tyrosine-phosphorylation-regulated kinase 1B, sequence (Q9Y463 whole entry, looked up): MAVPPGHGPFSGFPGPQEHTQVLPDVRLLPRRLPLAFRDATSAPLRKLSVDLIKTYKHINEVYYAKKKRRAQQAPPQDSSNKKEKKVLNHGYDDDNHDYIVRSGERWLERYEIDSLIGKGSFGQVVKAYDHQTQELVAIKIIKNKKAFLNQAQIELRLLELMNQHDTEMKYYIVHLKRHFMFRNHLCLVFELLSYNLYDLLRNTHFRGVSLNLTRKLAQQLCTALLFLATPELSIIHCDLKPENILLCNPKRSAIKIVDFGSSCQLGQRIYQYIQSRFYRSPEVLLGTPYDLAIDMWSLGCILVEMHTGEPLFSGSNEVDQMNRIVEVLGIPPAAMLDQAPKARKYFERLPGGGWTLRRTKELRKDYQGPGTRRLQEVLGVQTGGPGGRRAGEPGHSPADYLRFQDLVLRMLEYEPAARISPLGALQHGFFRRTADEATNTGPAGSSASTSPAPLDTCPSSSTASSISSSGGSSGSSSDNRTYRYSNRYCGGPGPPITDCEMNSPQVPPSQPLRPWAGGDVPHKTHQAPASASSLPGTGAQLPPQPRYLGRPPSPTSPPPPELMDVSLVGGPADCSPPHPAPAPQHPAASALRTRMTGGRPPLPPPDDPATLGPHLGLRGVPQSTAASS
Serine/threonine-protein kinase 38 (Homo sapiens), sequence (Q15208 2-465 limits assumed): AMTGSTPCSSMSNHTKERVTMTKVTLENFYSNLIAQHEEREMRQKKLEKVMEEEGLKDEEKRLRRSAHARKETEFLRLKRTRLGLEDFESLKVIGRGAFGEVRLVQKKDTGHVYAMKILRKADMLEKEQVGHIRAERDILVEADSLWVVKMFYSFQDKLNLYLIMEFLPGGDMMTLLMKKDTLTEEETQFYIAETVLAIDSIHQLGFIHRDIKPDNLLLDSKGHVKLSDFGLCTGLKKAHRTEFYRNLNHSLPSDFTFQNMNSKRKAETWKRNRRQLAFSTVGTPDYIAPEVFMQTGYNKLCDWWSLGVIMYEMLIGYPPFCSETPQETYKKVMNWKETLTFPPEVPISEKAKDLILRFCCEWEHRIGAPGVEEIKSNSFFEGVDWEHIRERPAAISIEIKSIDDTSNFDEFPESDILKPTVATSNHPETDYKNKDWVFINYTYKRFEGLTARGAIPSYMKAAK
Mitogen-activated protein kinase kinase kinase 11 (Homo sapiens), sequence (Q16584 whole entry, looked up): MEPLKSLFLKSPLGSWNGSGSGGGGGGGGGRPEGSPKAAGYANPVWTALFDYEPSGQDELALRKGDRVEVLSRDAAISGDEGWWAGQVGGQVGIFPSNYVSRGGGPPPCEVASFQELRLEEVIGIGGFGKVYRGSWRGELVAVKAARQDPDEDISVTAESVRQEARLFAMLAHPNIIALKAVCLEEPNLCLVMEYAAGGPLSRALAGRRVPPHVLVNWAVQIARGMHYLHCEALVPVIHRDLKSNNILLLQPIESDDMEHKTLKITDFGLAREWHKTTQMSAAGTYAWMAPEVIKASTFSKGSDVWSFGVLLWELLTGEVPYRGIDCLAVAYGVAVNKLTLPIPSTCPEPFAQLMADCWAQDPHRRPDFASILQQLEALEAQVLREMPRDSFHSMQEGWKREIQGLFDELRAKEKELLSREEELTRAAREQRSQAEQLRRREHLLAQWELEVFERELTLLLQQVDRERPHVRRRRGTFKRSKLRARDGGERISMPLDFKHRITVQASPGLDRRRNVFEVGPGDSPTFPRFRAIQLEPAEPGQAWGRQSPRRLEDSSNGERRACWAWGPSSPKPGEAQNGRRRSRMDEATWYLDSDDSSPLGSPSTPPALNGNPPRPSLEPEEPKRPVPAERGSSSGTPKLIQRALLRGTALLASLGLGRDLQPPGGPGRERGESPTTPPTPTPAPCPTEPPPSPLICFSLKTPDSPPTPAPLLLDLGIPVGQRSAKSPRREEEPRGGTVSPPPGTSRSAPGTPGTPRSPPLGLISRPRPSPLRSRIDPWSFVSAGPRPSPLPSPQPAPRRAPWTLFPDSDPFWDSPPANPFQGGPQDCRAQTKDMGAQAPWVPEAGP
MAP kinase-interacting serine/threonine-protein kinase 2, sequence (Q9HBH9 whole entry, looked up): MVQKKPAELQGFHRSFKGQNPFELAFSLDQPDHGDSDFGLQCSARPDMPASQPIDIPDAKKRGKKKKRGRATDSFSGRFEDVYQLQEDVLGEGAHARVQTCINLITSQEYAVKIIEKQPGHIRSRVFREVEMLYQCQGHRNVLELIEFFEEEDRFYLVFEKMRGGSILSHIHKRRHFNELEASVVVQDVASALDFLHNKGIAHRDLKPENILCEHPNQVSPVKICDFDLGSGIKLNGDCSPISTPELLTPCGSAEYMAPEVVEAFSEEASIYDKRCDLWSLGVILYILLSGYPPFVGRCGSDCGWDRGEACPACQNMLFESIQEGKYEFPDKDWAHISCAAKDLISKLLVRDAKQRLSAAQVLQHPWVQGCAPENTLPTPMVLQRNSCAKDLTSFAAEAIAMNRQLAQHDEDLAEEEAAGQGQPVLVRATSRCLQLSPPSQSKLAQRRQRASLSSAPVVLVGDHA

With `CNC(=O)Nc1ccc(-c2nc(N3CC4CCC(C3)O4)c3cnn(C4CCC5(CC4)OCCO5)c3n2)cc1`, in [1], the % of control was 100%.

The compound `CNCCN1CCC(c2cc(CN(C)C(=O)c3cccc(Oc4ccccc4)c3)ccn2)CC1` returned a concentration for half-maximal inhibition (IC50) in assay [2] greater than 10 µM.

Compound `COc1cc(N(C)c2ccnc3ccc(C(F)(F)F)cc23)cc(OC)c1OC` yielded a % binding in assay [3] of 90%.

Compound `Nc1cnc(N2CCc3cc(S(=O)(=O)Nc4c(F)cc(Cl)cc4F)cc(N4CCCC4=O)c32)nc1` [TP-020n] had a % of control in [4] of 100%.

As for `N#Cc1cccc(-c2c[nH]c3ncnc(N4CCOCC4)c23)c1`, in assay [5], the % of inhibition was 56%.

In the case of `CN1Cc2nccc(-c3cn(C)nc3-c3ccc(F)cc3)c2C1=O`, the % of inhibition in [6] came to 9%.

As to `CCC(=O)N1CC[C@H](Nc2ncnc3c2CN(c2cnc(OC)c(C(F)(F)F)c2)CC3)C1` [LENIOLISIB], on Mu-type opioid receptor, the IC50 was greater than 30 µM.

`Cc1cnc(Nc2ccc(F)cc2Cl)nc1-c1c[nH]c(C(=O)N[C@H](CO)c2cccc(Cl)c2)c1`: the % of inhibition in [7] was found to be 7%.

`Cc1cc(F)c(C(=O)Nc2cccc(-c3nncn3C(C)C)n2)cc1-n1cnc(C2CC2)c1` gave a % of control in assay [8] of 100%.

As to `O[C@H]1CC[C@H](Nc2ncc3nc(Nc4c(F)cc(F)cc4F)n([C@H]4CCOC4)c3n2)CC1`, the % of control in assay [9] and in assay [10] was 100% throughout.

On to `Cc1ccc(-c2ccc3c(ccc4sc5c(c43)NC[C@@H](C)NC5=O)n2)cn1`, for which, in assay [11], the % of inhibition is -8%.
